Measured values taken from ChEMBL document CHEMBL5331122, “Structure-Activity Relationship Study of Antimicrobial Peptide PE2 Delivered Novel Linear Derivatives with Potential of Eradicating Biofilms and Low Incidence of Drug Resistance” (J Med Chem, 2023).
≈ marks a conversion by molar mass, not a printed value. Calls of active or inactive are those of the source. The calls are words filed in the database; no cut-off is given here. Where a SMILES comes first, the peptide text is derived from it. Bridges are numbered along the chain shown (N, C = ends). [ ]: non-standard residue; d: D form. The star is where a group is joined. Heptanoyl(6-Me) = CC(C)CCCCC(=O)*; Dab = NCC[C@H](N)C(=O)O; Hexanoyl = CCCCCC(=O)*

Columns and labels:
Staphylococcus aureus [1] = test: Antibacterial activity against Staphylococcus aureus ATCC 25923 assessed as fold increase in MIC in presence of ZnCl2; format: functional
Escherichia coli [2] = test: Antibacterial activity against Escherichia coli ATCC 25922 assessed as fold increase in MIC in presence of FeCl3; format: functional
Staphylococcus aureus [3] = test: Antibacterial activity against Staphylococcus aureus ATCC 25923 assessed as fold increase in MIC in presence of FeCl3; format: functional
Staphylococcus aureus [4] = test: Antibacterial activity against Staphylococcus aureus ATCC 25923 assessed as fold increase in MIC in presence of MgCl2; format: functional
Escherichia coli [5] = test: Antibacterial activity against Escherichia coli ATCC 25922 assessed as fold increase in MIC in presence of NaCl; format: functional
Escherichia coli [6] = test: Antibacterial activity against Escherichia coli ATCC 25922 assessed as bacterial growth inhibition incubated for 18 hrs by broth microdilution method; format: functional
Escherichia coli [7] = test: Antibacterial activity against Escherichia coli ATCC 25922 assessed as fold increase in MIC in presence of ZnCl2; format: functional
Enterococcus faecalis = test: Antibacterial activity against Enterococcus faecalis ATCC 29212 assessed as bacterial growth inhibition incubated for 18 hrs by broth microdilution method; format: functional
Klebsiella pneumoniae = test: Antibacterial activity against Klebsiella pneumoniae ATCC 700603 assessed as bacterial growth inhibition incubated for 18 hrs by broth microdilution method; format: functional
Escherichia coli [8] = test: Antibacterial activity against Escherichia coli ATCC 25922 assessed as fold increase in MIC in presence of MgCl2; format: functional
Staphylococcus aureus [9] = test: Antibacterial activity against Staphylococcus aureus ATCC 25923 assessed as fold increase in MIC in presence of KCl; format: functional
Escherichia coli [10] = test: Antibacterial activity against Escherichia coli ATCC 25922 assessed as fold increase in MIC in presence of KCl; format: functional
Staphylococcus aureus [11] = test: Antibacterial activity against Staphylococcus aureus ATCC 25923 assessed as fold increase in MIC in presence of NaCl; format: functional
Bacillus subtilis = test: Antibacterial activity against Bacillus subtilis ATCC 23857 assessed as bacterial growth inhibition incubated for 18 hrs by broth microdilution method; format: functional
Pseudomonas aeruginosa = test: Antibacterial activity against Pseudomonas aeruginosa ATCC 27853 assessed as bacterial growth inhibition incubated for 18 hrs by broth microdilution method; format: functional
Staphylococcus aureus [12] = test: Antibacterial activity against Staphylococcus aureus ATCC 25923 assessed as bacterial growth inhibition incubated for 18 hrs by broth microdilution method; format: functional
Escherichia coli [13] = test: Induction of drug resistance against Escherichia coli ATCC 25922measured after 5 to 7 passages by sequential passaging method; format: functional
Escherichia coli [14] = test: Antibacterial activity against rifampicin-resistant Escherichia coli ATCC 25922 assessed as reduction in bacterial growth incubated for 18 hrs by broth microdilution method; format: functional
Escherichia coli [15] = test: Induction of drug resistance against Escherichia coli ATCC 25922 assessed as fold increase in MIC measured upto 15 passages by sequential passaging method; format: functional
Staphylococcus aureus [16] = test: Induction of drug resistance against Staphylococcus aureus ATCC 25923 assessed as fold increase in MIC measured upto 15 passages by sequential passaging method; format: functional
Staphylococcus aureus [17] = test: Antibacterial activity against rifampicin-resistant Staphylococcus aureus ATCC 25923 assessed as reduction in bacterial growth incubated for 18 hrs by broth microdilution method; format: functional
Erythrocyte = test: Hemolytic activity in mouse red blood cell assessed as hemolysis incubated for 1 hr; format: toxicity, cell-based; settings: dose 4-256 µg/ml
[18] = Hemolytic activity in mouse red blood cells assessed as hemolysis at 256 microg/ml incubated for 1 hr relative to control; format: toxicity, cell-based, Erythrocyte; settings: red blood cells (erythrocytes), at 256 µg/mL, read-out: Activity

Row | Structure (SMILES) | MIC (Escherichia coli [6]) [µg/mL] | MIC (Enterococcus faecalis) [µg/mL] | MIC (Klebsiella pneumoniae) [µg/mL] | MIC (Bacillus subtilis) [µg/mL] | MIC (Pseudomonas aeruginosa) [µg/mL] | MIC (Staphylococcus aureus [12]) [µg/mL] | HC10 (Erythrocyte) [µg/mL] | hemolysis at 1 h, 256 µg/mL [18] [%] | further results
1 | CC(C)CCCCC(=O)N[C@@H](CCN)C(=O)N[C@H](C(=O)N[C@@H](CCN)C(=O)N[C@H]1CCNC(=O)[C@H]([C@@H](C)O)NC(=O)[C@H](CCN)NC(=O)[C@H](CCN)NC(=O)[C@H](CC(C)C)NC(=O)[C@@H](Cc2ccccc2)NC(=O)[C@H](CCN)NC1=O)[C@@H](C)O ({Heptanoyl(6-Me)}-[Dab]T[Dab][Dab][Dab][dF]L[Dab][Dab]T; lactam 4-C) | < 1 | 128 (≈ 108 µM) | 4 (≈ 3.36 µM) | 8 (≈ 6.73 µM) | 2 (≈ 1.68 µM) | 16 (≈ 13.5 µM) |  |  | fold change (FC) (Staphylococcus aureus [1]): 4; fold change (FC) (Escherichia coli [2]): <=2; fold change (FC) (Staphylococcus aureus [3]): 4; fold change (FC) (Staphylococcus aureus [4]): 4; fold change (FC) (Escherichia coli [5]): <=2; fold change (FC) (Escherichia coli [7]): <=2; fold change (FC) (Escherichia coli [8]): <=2; fold change (FC) (Staphylococcus aureus [9]): 4; fold change (FC) (Escherichia coli [10]): <=2; fold change (FC) (Staphylococcus aureus [11]): 4
2 | CO[C@H]1/C=C/O[C@@]2(C)Oc3c(C)c(O)c4c(O)c(c(/C=N/N5CCN(C)CC5)c(O)c4c3C2=O)NC(=O)/C(C)=C\C=C\[C@H](C)[C@H](O)[C@@H](C)[C@@H](O)[C@@H](C)[C@H](OC(C)=O)[C@@H]1C [RIFAMPIN] | 4 (≈ 4.86 µM) | < 1 | 32 (≈ 38.9 µM) | < 1 | 32 (≈ 38.9 µM) | < 1 |  |  | Activity (Escherichia coli [13]): Active; MIC (Escherichia coli [14]): 4100 µg/mL (≈ 4980 µM); fold change (FC) (Escherichia coli [15]): 64; fold change (FC) (Staphylococcus aureus [16]): 512; MIC (Staphylococcus aureus [17]): 2050 µg/mL (≈ 2490 µM)
3 | CCCCCC(=O)N[C@@H](CCN)C(=O)N[C@H](C(=O)N[C@@H](CCN)C(=O)N[C@H](Cc1ccccc1)C(=O)N[C@@H](CC(C)C)C(=O)N[C@@H](CCN)C(=O)N[C@@H](C(=O)N[C@@H](CC(C)C)C(=O)N[C@H](C(N)=O)[C@@H](C)O)C(C)C)[C@@H](C)CC | 16 (≈ 14.5 µM) | 128 (≈ 116 µM) | 32 (≈ 29 µM) | 4 (≈ 3.63 µM) | 4 (≈ 3.63 µM) | 32 (≈ 29 µM) | 512 | < 10 | 
4 | CCCCCC(=O)N[C@@H](CCN)C(=O)N[C@H](C(=O)N[C@@H](CCN)C(=O)N[C@H](Cc1ccccc1)C(=O)N[C@@H](CC(C)C)C(=O)N[C@@H](CCN)C(=O)N[C@@H](C(=O)N[C@@H](CC(C)C)C(=O)N[C@@H](Cc1ccccc1)C(N)=O)C(C)C)[C@@H](C)CC | 16 (≈ 13.9 µM) | 64 (≈ 55.7 µM) | 32 (≈ 27.9 µM) | 4 (≈ 3.48 µM) | 4 (≈ 3.48 µM) | 16 (≈ 13.9 µM) | 512 | < 5 | 
5 | CCCCCC(=O)N[C@@H](CCN)C(=O)N[C@H](C(=O)N[C@@H](CCN)C(=O)N[C@H](Cc1ccccc1)C(=O)N[C@@H](CC(C)C)C(=O)N[C@@H](CCN)C(=O)N[C@@H](C(=O)N[C@@H](CC(C)C)C(=O)N[C@@H](CO)C(N)=O)C(C)C)[C@@H](C)CC (Hexanoyl-[Dab]I[Dab][dF]L[Dab][dV]LS-NH2) | 32 (≈ 29.4 µM) | 128 (≈ 118 µM) | 64 (≈ 58.8 µM) | 8 (≈ 7.35 µM) | 4 (≈ 3.68 µM) | 64 (≈ 58.8 µM) | 512 | < 5 | 
6 | CCCCCC(=O)N[C@@H](CCN)C(=O)N[C@H](C(=O)N[C@@H](CCN)C(=O)N[C@H](Cc1ccccc1)C(=O)N[C@@H](CC(C)C)C(=O)N[C@@H](CCN)C(=O)N[C@@H](C(=O)N[C@@H](CC(C)C)C(=O)N[C@@H](Cc1c[nH]c2ccccc12)C(N)=O)C(C)C)[C@@H](C)CC | 16 (≈ 13.5 µM) | 32 (≈ 26.9 µM) | 32 (≈ 26.9 µM) | 4 (≈ 3.37 µM) | 4 (≈ 3.37 µM) | 8 (≈ 6.74 µM) | 512 | < 5 | 
7 | CCC[C@H](O)CC(=O)N[C@@H](CCN)C(=O)N[C@H](C(=O)N[C@@H](CCN)C(=O)N[C@H](Cc1ccccc1)C(=O)N[C@@H](CC(C)C)C(=O)N[C@@H](CCN)C(=O)N[C@@H](C(=O)N[C@@H](CC(C)C)C(=O)N[C@H](C(N)=O)[C@@H](C)O)C(C)C)[C@@H](C)CC | 32 (≈ 28.6 µM) | > 128 | 64 (≈ 57.2 µM) | 8 (≈ 7.15 µM) | 4 (≈ 3.58 µM) | 128 (≈ 114 µM) | 512 | < 2 | 
8 | CCCCCC(=O)N[C@@H](CCN)C(=O)N[C@H](C(=O)N[C@@H](CCN)C(=O)N[C@H](Cc1ccccc1)C(=O)N[C@@H](CC(C)C)C(=O)N[C@@H](CCN)C(=O)N[C@@H](C(=O)N[C@@H](CC(C)C)C(=O)N[C@@H](CCCCN)C(N)=O)C(C)C)[C@@H](C)CC | 64 (≈ 56.7 µM) | 128 (≈ 113 µM) | 32 (≈ 28.3 µM) | 8 (≈ 7.08 µM) | 2 (≈ 1.77 µM) | 64 (≈ 56.7 µM) | 512 | < 5 | 
9 | CC[C@H](C)[C@H](NC(=O)[C@H](CCN)NC(=O)CC(O)C(C)C)C(=O)N[C@@H](CCN)C(=O)N[C@H](Cc1ccccc1)C(=O)N[C@@H](CC(C)C)C(=O)N[C@@H](CCN)C(=O)N[C@@H](C(=O)N[C@@H](CC(C)C)C(=O)N[C@H](C(N)=O)[C@@H](C)O)C(C)C (some centres undefined) | 32 (≈ 28.6 µM) | > 128 | 64 (≈ 57.2 µM) | 8 (≈ 7.15 µM) | 4 (≈ 3.58 µM) | > 128 | 512 | < 2 | 
10 | CC[C@H](C)[C@@H]1NC(=O)[C@H](CCN)NC(=O)[C@H](CC(C)C)NC(=O)[C@H]([C@@H](C)O)NC(=O)[C@H](CC(C)C)NC(=O)[C@@H](C(C)C)NC(=O)[C@H](CCN)NC(=O)[C@H](CC(C)C)NC(=O)[C@@H](Cc2ccccc2)NC(=O)[C@H](CCN)NC1=O | 32 (≈ 29.1 µM) | > 128 | 32 (≈ 29.1 µM) | 16 (≈ 14.5 µM) | 16 (≈ 14.5 µM) | > 128 | 512 | < 5 | 
11 | CCCCCC(=O)N[C@@H](CCN)C(=O)N[C@H](C(=O)N[C@@H](CCN)C(=O)N[C@H](Cc1ccccc1)C(=O)N[C@@H](CC(C)C)C(=O)N[C@@H](CCN)C(=O)N[C@@H](C(=O)N[C@@H](CC(C)C)C(=O)N[C@H](C(N)=O)[C@@H](C)CC)C(C)C)[C@@H](C)CC | 16 (≈ 14.4 µM) | 128 (≈ 115 µM) | 32 (≈ 28.7 µM) | 8 (≈ 7.18 µM) | 4 (≈ 3.59 µM) | 32 (≈ 28.7 µM) | 512 | < 5 | 
